According to patent US11738034B2, “Triphenylphosphonium-derivative compounds for eradicating cancer stem cells” (LUNELLA BIOTECH, INC., priority 2017, dated 2023):
One block for each compound: values may come before it.

Tests used:
[1] = tested on: MCF-7 human breast cancer cells; assay: ATP-depletion assay (CellTiter-Glo & Hoechst 33342) in MCF-7 cells; type: cell-based; conditions: for effect on ATP levels in initial screen (positive hit): MCF-7, ATP depletion screen of nine TPP-derivatives; for effect on ATP levels in validation (FIGS. 2-4): MCF-7 treated for 72 h; for Hoechst staining (%) / ATP level (%): MCF-7 cell line, 50 μM treatment for 72 hours, normalized to control; for Hoechst staining (%): cell viability
Text: In order to identify new molecules that can be used to target mitochondria within CSCs, the inventors screened a variety of TPP-derivatives as described herein, by employing CellTiter-Glo to measure intracellular levels of ATP in adherent cancer cells (MCF-7) in 96-well plates. As 85% of cellular ATP is normally derived from mitochondrial metabolism, ATP levels are an excellent read-out to monitor mitochondrial function. In parallel, the same 96-well plates were also stained with Hoechst 33342, to measure DNA content, to gauge cell viability. Therefore, we randomly selected 9 TPP derivatives and subjected them to screening in our assay system.
With respect to the ATP-depletion assay (with CellTiter-Glo & Hoechst 33342), MCF-7 cells were treated with different TPP derivatives for 72 hours in a black 96-well plate then wells were washed with PBS and were stained with Hoechst 33342 dye at a final concentration of 10 μg/ml. Fluorescence was read by a plate reader at 355 nm (excitation), 460 nm (emission). After washing with PBS CellTiterGlo luminescent assay (Promega) was performed according to the manufacturer's protocols to determine intracellular ATP levels in the Hoechst dye stained cells. Both the fluorescent and luminescent data were normalized to control levels and were shown as percentage for comparison.

MCF-7 cells = assay: Mitochondrial oxygen consumption rate (OCR), Seahorse XFe96; type: cell-based, human; conditions: MCF-7, Seahorse, FIGS. 6-8
Text: Some embodiments of the present approach relate to identifying TPP-derivatives compounds that target mitochondria in CSCs and represent potential anti-cancer therapies. To further validate that the ATP level reduction of the TPP compounds was indeed due to the inhibition of mitochondrial function, we directly measured mitochondrial oxygen consumption rates (OCR) using the Seahorse XFe96 metabolic flux analyser.
FIG. 6 illustrates the impaired mitochondrial function of MCF-7 cells after treatment with TPP Compound 1. FIGS. 7A and 7B illustrate the impaired mitochondrial function of MCF-7 cells after treatment with either TPP Compound 2 or TPP Compound 3. […] Oxygen consumption rate (OCR) was measured with a Seahorse XF96 Extracellular Flux Analyzer. Data are represented as mean+/−SEM. […] For FIG. 6, **p<0.01; ***p<0.001; indicates significance, all relative to the control. […] For FIG. 7, **p<0.01; ***p<0.001; indicates significance, all relative to the control. […] And for FIG. 8, **p<0.01; ***p<0.001; indicates significance, all relative to the control.
For measuring the mitochondrial OCR, mitochondrial function was determined by using the XF Cell Mito Stress Test Kit (Seahorse Bioscience, MA, USA) with a Seahorse XFe96 Extracellular Flux Analyzer (Seahorse Bioscience, MA, USA). MCF-7 cells were seeded in a specialized 96-well tissue culture plate (XF96 microplate). The next day, the TPP derivatives were added and the plate was incubated for 72 hours. Before the experiment media was changed to XF base medium (including 1 mM pyruvate, 2 mM glutamine and 10 mM glucose), cells were incubated at 37° C. in a CO2-free atmosphere for one hour before measurement. After detection of basal OCR (an indicator for mitochondrial respiration) OCR responses were evaluated towards the application of oligomycin (1 μM), FCCP (600 nM), and the combination of antimycin (1 μM) and rotenone (1 μM). From these measurements various parameters of mitochondrial function were determined. To determine cell viability in the measured wells sulphorodamine (SRB) assay was performed. Oxygen consumption rate values were then normalized to the given SRB values.

MCF-7 breast CSCs = assay: 3D Spheroid (mammosphere) assay, CSC propagation; type: cell-based, human; conditions: MCF-7, treated for 5 days in mammosphere media; read-out: IC-50, CSC propagation (mammosphere formation)
Procedure: Following validation, the inventors evaluated the effects of these TPP-derivative compounds on the propagation of CSCs, using the mammosphere assay as a read-out. […] The data presented in FIG. 9, from left to right, are TPP-derivatives in the following order: 2,4-dichlorobenzyl-TPP (black); 1-naphthylmethyl-TPP (inclined lines); 3-methylbenzyl-TPP (dotted lines); 2-chlorobenzyl-TPP (white); 2-butene-1,4-bis-TPP (horizontal lines). Cells were treated for 5 days in mammosphere media. Data are represented as mean+/−SEM.
For the 3D Spheroid (mammosphere) assay, a single cell suspension of MCF-7 cells was prepared using enzymatic (lx Trypsin-EDTA, Sigma Aldrich, #T3924) and manual disaggregation (25 gauge needle) to create a single cell suspension. […] Different TPP derivatives were previously diluted in the mammosphere media before addition of cells. […] After 5 days of culture, spheres >50 μm were counted using an eyepiece graticule and mammosphere numbers were normalized to control treatments (cells treated with vehicle only).

[2] = tested on: normal fibroblasts (hTERT-BJ1); assay: Cell viability (Hoechst) and intracellular ATP levels in normal fibroblasts; type: cell-based, human; conditions: hTERT-BJ1, 1 μM, 72 h
Procedure: Cell viability and intracellular ATP levels were determined in the same treated samples. Hoechst staining (%) of hTERT-BJ1 human fibroblasts (black); ATP level (%) of hTERT-BJ1 human fibroblasts (dotted); Hoechst staining (%) of MCF-7 cells (inclined lines); ATP level (%) of MCF-7 cells (white). TPP treatments at 1 μM, 72 h. Data are represented as mean+/−SEM. *p<0.05; **p<0.01; indicates significance, all relative to the control.
With respect to cell culture and reagents, the human breast adenocarcinoma cell line (MCF-7) was from the American Type Culture Collection (ATCC). hTERT-BJ1 cells were from Clontech, Inc. MCF-7 and hTERT-BJ1 cells were grown in DMEM supplemented with 10% fetal bovine serum, GlutaMAX and 1% penicillin-streptomycin and incubated at 37 C in a humidified 5% CO2 incubator. The medium was changed 2-3 times/week. […]
With respect to the ATP-depletion assay (with CellTiter-Glo & Hoechst 33342), MCF-7 cells were treated with different TPP derivatives for 72 hours in a black 96-well plate then wells were washed with PBS and were stained with Hoechst 33342 dye at a final concentration of 10 μg/ml. Fluorescence was read by a plate reader at 355 nm (excitation), 460 nm (emission). […]

IC50 (MCF-7 breast CSCs): > 5 µM
SMILES: c1ccc([P+](Cc2cccc3ccccc23)(c2ccccc2)c2ccccc2)cc1 [1-naphthylmethyl-TPP]
effect on ATP levels in initial screen (positive hit) [1]: significantly reduced ATP levels
effect on ATP levels in validation (FIGS. 2-4) [1]: progressively deplete cellular ATP levels
effect on mitochondrial oxygen consumption (MCF-7 cells): effectively inhibit mitochondrial oxygen consumption

SMILES: Clc1ccc(C[P+](c2ccccc2)(c2ccccc2)c2ccccc2)c(Cl)c1 [2,4-dichlorobenzyl-TPP]
effect on ATP levels in initial screen (positive hit) [1]: significantly reduced ATP levels
effect on ATP levels in validation (FIGS. 2-4) [1]: progressively deplete cellular ATP levels
effect on mitochondrial oxygen consumption (MCF-7 cells): effectively inhibit mitochondrial oxygen consumption

IC50 (MCF-7 breast CSCs): < 0.5 µM
SMILES: C(=CC[P+](c1ccccc1)(c1ccccc1)c1ccccc1)C[P+](c1ccccc1)(c1ccccc1)c1ccccc1 [2-butene-1,4-bis-TPP]
decrease of ATP levels in MCF-7 cancer cells ([1]; MCF-7, 1 μM, 72 h): ~85%
reduction of cell viability in MCF-7 cancer cells ([1]; MCF-7, 1 μM, 72 h): ~65%
effect on ATP levels in initial screen (positive hit) [1]: significantly reduced ATP levels
effect on ATP levels in validation (FIGS. 2-4) [1]: depletes ATP levels, relative to cell number
fold more effective at reducing ATP levels in cancer cells, relative to normal fibroblasts ([1]; MCF-7 versus hTERT-BJ1, 1 μM): 4.7 fold
fold more effective at reducing cell viability in cancer cells (versus fibroblasts) ([1]; MCF-7 versus hTERT-BJ1, 1 μM): 2.8 fold
effect on cell viability in human fibroblasts [2]: no effect on cell viability
reduction of ATP levels in human fibroblasts [2]: 25%
effect on mitochondrial oxygen consumption (MCF-7 cells): effectively inhibits mitochondrial oxygen consumption

SMILES: Clc1ccccc1C[P+](c1ccccc1)(c1ccccc1)c1ccccc1 [2-chlorobenzyl-TPP]
effect on ATP levels in initial screen (positive hit) [1]: significantly reduced ATP levels
effect on ATP levels in validation (FIGS. 2-4) [1]: progressively deplete cellular ATP levels
effect on mitochondrial oxygen consumption (MCF-7 cells): effectively inhibit mitochondrial oxygen consumption

SMILES: Cc1cccc(C[P+](c2ccccc2)(c2ccccc2)c2ccccc2)c1 [3-methylbenzyl-TPP]
effect on ATP levels in initial screen (positive hit) [1]: significantly reduced ATP levels
effect on ATP levels in validation (FIGS. 2-4) [1]: progressively deplete cellular ATP levels
effect on mitochondrial oxygen consumption (MCF-7 cells): effectively inhibit mitochondrial oxygen consumption

SMILES: N#Cc1ccc(C[P+](c2ccccc2)(c2ccccc2)c2ccccc2)cc1 [4-cyanobenzyl-TPP]
Hoechst staining (%) [1]: 72.7%
ATP level (%) [1]: 68.2%

SMILES: N#CC[P+](c1ccccc1)(c1ccccc1)c1ccccc1 [cyanomethyl-TPP]
Hoechst staining (%) [1]: 97.2%
ATP level (%) [1]: 95.1%

SMILES: CC1(C)CC(NC(=O)C[P+](c2ccccc2)(c2ccccc2)c2ccccc2)CC(C)(C)N1[O] [mito-TEMPO, (2-(2,2,6,6-Tetramethylpiperidin-1-oxyl-4-ylamino)-2-oxoethyl)triphenylphosphonium chloride, reference compound]
Hoechst staining (%) [1]: 100.0%
ATP level (%) [1]: 100.0%

SMILES: c1ccc([P+](Cc2ccc(C[P+](c3ccccc3)(c3ccccc3)c3ccccc3)cc2)(c2ccccc2)c2ccccc2)cc1 [p-xylylenebis-TPP, p-xylylene-bis-TPP]
Hoechst staining (%) [1]: 69.1%
ATP level (%) [1]: 43.9%
